Measured values published in patent US20250326771A1, “PIPERAZINE DERIVATIVES USEFUL IN HIV THERAPY” (VIIV HEALTHCARE COMPANY, priority 2022, published 2025).
Like-named read-outs stand apart in the source and are kept apart here.

Legend:
[1] = test system: Jurkat HIV-luciferase clones; assay: Jurkat latency reversal assay; assay type: cell-based; settings: Homo sapiens, 48 h; Jurkat latency reversal assay potency; read-out: Jurkat pEC50 (converted)
Method in brief: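 Compounds are titrated 3-fold over 14 points from 10 μM in duplicate at 0.5% DMSO. Clones C16, 115 and N6, grown with 500 nM EFV, are co-incubated for 48 h at 37° C. Virally driven luciferase is read by luminescence, and EC50 and maximal percent activation versus vehicle come from a four-parameter model.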

cIAP1-BIR3 = cIAP1-BIR3 (Homo sapiens (Human), UniProt Q13490); assay: BIR binding assay (FRET competition), cIAP1 BIR3; settings: for cIAP1 BIR3 vs BIR2 separation window: fold separation (FS) for cIAP1
Sequence of cIAP1-BIR3 (Q13490 253-363): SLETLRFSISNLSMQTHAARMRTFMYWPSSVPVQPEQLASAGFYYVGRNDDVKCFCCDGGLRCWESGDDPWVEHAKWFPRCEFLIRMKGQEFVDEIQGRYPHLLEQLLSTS
Method in brief: (§1)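 615/665 nm FRET ratio. Compound, His-domain and 200 nM AF647-SMAC peptide incubated 60 min, then 2 nM Eu-W1024 for 30 min. Domains: cIAP1-BIR3 50 nM; XIAP-BIR3 100 nM; cIAP1-BIR2, cIAP2-BIR2 325 nM each. 15-pt 3-fold series; variable-slope IC50.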

cIAP1-BIR2 = cIAP1-BIR2 (Homo sapiens (Human), UniProt Q13490); assay: BIR binding assay (FRET competition), cIAP1 BIR2
Sequence of cIAP1-BIR2 (Q13490 173-257): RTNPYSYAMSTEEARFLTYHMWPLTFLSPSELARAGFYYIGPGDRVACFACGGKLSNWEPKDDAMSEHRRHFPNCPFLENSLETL
Method in brief: as §1

cIAP2-BIR3 = cIAP2-BIR3 (Homo sapiens (Human), UniProt Q13489); assay: BIR binding assay (FRET competition), cIAP2 BIR3; settings: for cIAP2 BIR3 vs BIR2 separation window: fold separation (FS) for cIAP2
Sequence of cIAP2-BIR3 (Q13489 238-349): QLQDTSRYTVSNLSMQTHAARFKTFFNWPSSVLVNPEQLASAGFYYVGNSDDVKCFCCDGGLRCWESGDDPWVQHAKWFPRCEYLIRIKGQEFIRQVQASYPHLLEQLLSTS

cIAP2-BIR2 = cIAP2-BIR2 (Homo sapiens (Human), UniProt Q13489); assay: BIR binding assay (FRET competition), cIAP2 BIR2
Sequence of cIAP2-BIR2 (Q13489 158-242): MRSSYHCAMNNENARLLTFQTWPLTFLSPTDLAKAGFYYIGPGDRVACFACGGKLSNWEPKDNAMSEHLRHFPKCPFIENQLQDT
Method in brief: as §1

XIAP-BIR3 = XIAP-BIR3 (Homo sapiens (Human), UniProt P98170); assay: BIR binding assay (FRET competition), XIAP BIR3; settings: for XIAP BIR3 vs BIR2 separation window: fold separation (FS) for XIAP
Sequence of XIAP-BIR3 (P98170 241-356): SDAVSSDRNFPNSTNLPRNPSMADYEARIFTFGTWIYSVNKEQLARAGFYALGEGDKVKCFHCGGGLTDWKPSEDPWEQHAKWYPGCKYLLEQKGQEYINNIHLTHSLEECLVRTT
Method in brief: as §1

XIAP-BIR2 = XIAP-BIR2 (Homo sapiens (Human), UniProt P98170); assay: BIR binding assay (FRET competition), XIAP BIR2
Sequence of XIAP-BIR2 (P98170 124-240): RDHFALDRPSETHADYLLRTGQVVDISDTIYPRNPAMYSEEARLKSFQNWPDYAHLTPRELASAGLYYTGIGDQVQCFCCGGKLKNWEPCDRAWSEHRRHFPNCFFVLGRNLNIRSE
Method in brief: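 Competitive TR-FRET used His-tagged XIAP-BIR2 (200 nM) and 200 nM AlexaFluor647-labelled AVPIAQKSE SMAC peptide in HEPES buffer pH 7.4 with CHAPS, glycerol and DTT, incubated 60 min before 30 min with 2 nM Eu-W1024. The 615/665 nm ratio from a 15-point, 3-fold series was fit with a four-parameter model for IC50/pIC50.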

[2] = FRET competition, read-out: XIAP BIR2 (pIC50) (converted)

Row | SMILES | EC50 [1] | IC50 (cIAP1-BIR3) | cIAP1 BIR3 vs BIR2 separation window (cIAP1-BIR3) | IC50 (cIAP1-BIR2) | IC50 (cIAP2-BIR3) | cIAP2 BIR3 vs BIR2 separation window (cIAP2-BIR3) | IC50 (cIAP2-BIR2) | IC50 (XIAP-BIR3) | XIAP BIR3 vs BIR2 separation window (XIAP-BIR3) | IC50 (XIAP-BIR2; [2]) | IC50 (XIAP-BIR2)
1 | C[C@@H]1CN(CC(=O)N2CC(C)(C)c3[nH]c(=O)c(Cc4ccc(F)cc4)cc32)[C@@H](CN2CCO[C@H](C(=O)Nc3cccc(NC(=O)[C@@H]4CN(C[C@H]5CN[C@H](C)CN5CC(=O)N5CC(C)(C)c6[nH]c(=O)c(Cc7ccc(F)cc7)cc65)CCO4)c3)C2)CN1 [Compound 140, (2S,2′S)-N,N′-(1,3-phenylene)bis(4-(((2R,5R)-1-(2-(6-(4-fluorobenzyl)-3,3-dimethyl-5-oxo-2,3,4,5-tetrahydro-1H-pyrrolo[3,2-b]pyridin-1-yl)-2-oxoethyl)-5-methylpiperazin-2-yl)methyl)morpholine-2-carboxamide)] | 0.0631 to 0.316 µM | 0.00794 to 0.0158 µM | +++ (10,000>FS>1,000) | 1 to 3.16 µM | 0.00794 to 0.0158 µM | +++ (10,000>FS>1,000) | 1 to 3.16 µM | 0.0158 to 0.0316 µM | ++++ (FS>10,000) | 10 to 51.3 µM | 
2 | Cc1c(NC(=O)[C@@H]2CN(C[C@H]3CN[C@H](C)CN3CC(=O)N3CC(C)(C)c4[nH]c(=O)c(Cc5ccc(F)cc5)cc43)CCO2)cccc1NC(=O)[C@@H]1CN(C[C@H]2CN[C@H](C)CN2CC(=O)N2CC(C)(C)c3[nH]c(=O)c(Cc4ccc(F)cc4)cc32)CCO1 [Compound 141, (2S,2′S)-N,N′-(2-methyl-1,3-phenylene)bis(4-(((2R,5R)-1-(2-(6-(4-fluorobenzyl)-3,3-dimethyl-5-oxo-2,3,4,5-tetrahydro-1H-pyrrolo[3,2-b]pyridin-1-yl)-2-oxoethyl)-5-methylpiperazin-2-yl)methyl)morpholine-2-carboxamide)] | 0.0126 to 0.0631 µM | 0.00794 to 0.0158 µM | +++ (10,000>FS>1,000) | 1 to 3.16 µM | 0.00794 to 0.0158 µM | +++ (10,000>FS>1,000) | 1 to 3.16 µM | 0.0158 to 0.0316 µM | +++ (10,000>FS>1,000) | 10 to 51.3 µM | 
3 | C[C@@H]1CN(CC(=O)N2CC(C)(C)c3ncc(Nc4ccc(F)cc4)cc32)[C@@H](CN2CCO[C@H](COc3cccc(OC[C@@H]4CN(C[C@H]5CN[C@H](C)CN5CC(=O)N5CC(C)(C)c6ncc(Nc7ccc(F)cc7)cc65)CCO4)c3)C2)CN1 [Compound 143, -[6-(4-fluoroanilino)-3,3-dimethyl-2H-pyrrolo[3,2-b]pyridin-1-yl]-2-[(2R,5R)-2-[[(2S)-2-[[3-[[(2S)-4-[[(2R,5R)-1-[2-[6-(4-fluoroanilino)-3,3-dimethyl-2H-pyrrolo[3,2-b]pyridin-1-yl]-2-oxo-ethyl]-5-methyl-piperazin-2-yl]methyl]morpholin-2-yl]methoxy]phenoxy]methyl]morpholin-4-yl]methyl]-5-methyl-piperazin-1-yl]ethenone] | 0.316 to 3.31 µM | 0.0316 to 0.501 µM |  | 10 to 51.3 µM | 0.0158 to 0.0316 µM | ++++ (FS>10,000) | 10 to 51.3 µM | 0.0316 to 0.501 µM | +++ (10,000>FS>1,000) | 10 to 51.3 µM | 
4 | C[C@@H]1CN(CC(=O)N2CC(C)(C)c3ncc(N(C)c4ccc(F)cc4)cc32)[C@@H](CN2CCO[C@H](COc3cccc(OC[C@@H]4CN(C[C@H]5CN[C@H](C)CN5CC(=O)N5CC(C)(C)c6ncc(N(C)c7ccc(F)cc7)cc65)CCO4)c3)C2)CN1 [Compound 144] | 0.316 to 3.31 µM | 0.0316 to 0.501 µM | +++ (10,000>FS>1,000) | 10 to 51.3 µM | 0.0316 to 0.501 µM | +++ (10,000>FS>1,000) | 10 to 51.3 µM | 0.0316 to 0.501 µM | +++ (10,000>FS>1,000) | 10 to 51.3 µM | 
5 | C[C@@H]1CN(CC(=O)N2CC(C)(C)c3ncc(Cc4ccc(F)cc4)cc32)[C@@H](CN2CCO[C@H](COc3cccc(OC[C@@H]4CN(C[C@H]5CN[C@H](C)CN5CC(=O)N5CC(C)(C)c6ncc(Cc7ccc(F)cc7)cc65)CCO4)c3)C2)CN1 [Compound 145] | 0.0126 to 0.0631 µM | 0.00794 to 0.0158 µM | +++ (10,000>FS>1,000) | 3.16 to 10 µM | 0.00794 to 0.0158 µM | +++ (10,000>FS>1,000) | 10 to 51.3 µM | 0.0316 to 0.501 µM | ++++ (FS>10,000) | 10 to 51.3 µM | 
6 | C[C@@H]1CN(CC(=O)N2CC(C)(C)c3ncc(Cc4cccnc4)cc32)[C@@H](CN2CCO[C@H](COc3cccc(OC[C@@H]4CN(C[C@H]5CN[C@H](C)CN5CC(=O)N5CC(C)(C)c6ncc(Cc7cccnc7)cc65)CCO4)c3)C2)CN1 [Compound 146] | 0.316 to 3.31 µM | 0.00138 to 0.00794 µM | ++++ (FS>10,000) | 10 to 51.3 µM | 0.00138 to 0.00794 µM | ++++ (FS>10,000) | 10 to 51.3 µM | 0.0316 to 0.501 µM | ++++ (FS>10,000) |  | 10 to 51.3 µM
7 | C[C@@H]1CN(CC(=O)N2CC(C)(C)c3ncc(Cc4ccccc4)cc32)[C@@H](CN2CCO[C@H](COc3cccc(OC[C@@H]4CN(C[C@H]5CN[C@H](C)CN5CC(=O)N5CC(C)(C)c6ncc(Cc7ccccc7)cc65)CCO4)c3)C2)CN1 [Compound 150] | 0.0126 to 0.0631 µM | 0.00794 to 0.0158 µM | +++ (10,000>FS>1,000) | 3.16 to 10 µM | 0.00794 to 0.0158 µM | ++++ (FS>10,000) | 10 to 51.3 µM | 0.0158 to 0.0316 µM | ++++ (FS>10,000) |  | 10 to 51.3 µM
8 | C[C@@H]1CN(CC(=O)N2CC(C)(C)c3[nH]c(=O)c(Cc4ccc(F)cc4)cc32)[C@@H](CN2CCN(CCc3cn(CCC(=O)N4CCN(C[C@H]5CN[C@H](C)CN5CC(=O)N5CC(C)(C)c6[nH]c(=O)c(Cc7ccc(F)cc7)cc65)[C@H](C)C4)nn3)C[C@H]2C)CN1 [Compound 154] | 0.0631 to 0.316 µM | 0.00794 to 0.0158 µM | +++ (10,000>FS>1,000) | 1 to 3.16 µM | 0.00794 to 0.0158 µM | +++ (10,000>FS>1,000) | 1 to 3.16 µM | 0.00794 to 0.0158 µM | ++++ (FS>10,000) | 10 to 51.3 µM | 
9 | C[C@@H]1CN(CC(=O)N2CC(C)(C)c3[nH]c(=O)c(Cc4ccc(F)cc4)cc32)[C@@H](CN2CCN(Cc3cn(CC(=O)N4CCN(C[C@H]5CN[C@H](C)CN5CC(=O)N5CC(C)(C)c6[nH]c(=O)c(Cc7ccc(F)cc7)cc65)[C@H](C)C4)nn3)C[C@H]2C)CN1 [Compound 155] | 0.316 to 3.31 µM | 0.00138 to 0.00794 µM | +++ (10,000>FS>1,000) | 1 to 3.16 µM | 0.00794 to 0.0158 µM | +++ (10,000>FS>1,000) | 1 to 3.16 µM | 0.0158 to 0.0316 µM | ++++ (FS>10,000) | 10 to 51.3 µM | 
10 | C[C@@H]1CN(CC(=O)N2CC(C)(C)c3[nH]c(=O)c(Cc4ccc(F)cc4)cc32)[C@@H](CN2CCN(Cc3cn(CCC(=O)N4CCN(C[C@H]5CN[C@H](C)CN5CC(=O)N5CC(C)(C)c6[nH]c(=O)c(Cc7ccc(F)cc7)cc65)[C@H](C)C4)nn3)C[C@H]2C)CN1 [Compound 156] | 0.0631 to 0.316 µM | 0.0158 to 0.0316 µM | ++ (1,000>FS>100) | 1 to 3.16 µM | 0.00794 to 0.0158 µM | +++ (10,000>FS>1,000) | 1 to 3.16 µM | 0.0158 to 0.0316 µM | ++++ (FS>10,000) | 10 to 51.3 µM | 
